US20120165325A1, “Stable forms of N-(2,6-Dimethyl-4-morpholin-4-yl-phenyl)-3,3-dimethyl-butyramide” (H. Lundbeck A/S, priority 2009, published 2012)
Marks after values point to notes of the source that are not given here.

What was measured:
[1] = system: Male Wistar rats; experiment: Amphetamine challenge: antagonism of d-amphetamine induced hyperactivity; format: in vivo; conditions: rat; s.c. 30 min before d-amphetamine sulphate 0.5 mg/kg; motility over 2 hours; std. dev. in brackets
Experimental: Subjects. Male Wistar rats (Taconic, Denmark) weighing 170-240 g are used. The animals were housed under a 12-hr light/dark cycle under controlled conditions for regular in-door temperature (21±2° C.) and humidity (55±5%) with food and tap water available ad libitum. Eight rats were used at each dose level and in the parallel control group receiving the vehicle to the test compound plus d-amphetamine and the group receiving vehicle injections only.
Experimental procedure. The experiment was made in normal light conditions in an undisturbed room. The test substance was injected 30 min before s.c. before the injection of d-amphetamine sulphate (0.5 mg/kg). Immediately after injection of d-amphetamine, the rats were placed individually in the test cages that were placed in a U-frame, equipped with 4 infrared light sources and photocells. The light beams crossed the cage 4 cm above the cage floor. Recording of a motility count required interruption of adjacent light beams, thus avoiding counts induced by stationary movements of the rat. Motility (counts) was recorded for a period of 2 hours. The mean motility induced by vehicle (saline) treatment in the absence of d-amphetamine was used as baseline. The 100 percent effect of d-amphetamine was accordingly calculated to be total motility counts minus baseline. The response in groups receiving test compound was thus determined by the total motility counts minus baseline, expressed in percent of the similar result recorded in the parallel amphetamine control group. The percent responses were converted to percent inhibition from which ED50 values were calculated by means of log-probit analyses. In a parallel set of data, the potential sedative properties (motility inhibition) of the test compounds were evaluated using essentially the same procedure with the exception of not administering d-amphetamine-sulphate at the initiation of locomotor assessment.

[2] = system: DA levels in the nucleus accumbens; experiment: Microdialysis: DA levels in the nucleus accumbens of freely moving rats; format: in vivo, rat; conditions: for DA level in the nucleus accumbens, % of baseline: amphetamine 0.5 mg/kg s.c. + compound 5 mg/kg s.c.
Experimental: Subjects. Male Sprague-Dawley rats (Charles River), initially weighing 275-300 g, were used. The animals were housed under a 12-hr light/dark cycle under controlled conditions for regular in-door temperature (21±2° C.) and humidity (55±5%) with food and tap water available ad libitum.
Surgery. Animals were anaesthetized with hypnorm/dormicum (2 ml/kg s.c.) and intracerebral guide cannulas (CMA/12) were stereotaxically implanted, positioning the dialysis probe tip in the nucleus accumbens (co-ordinates: 1.7 mm anterior to bregma, −1.2 mm lateral to bregma, 8.0 mm ventral to the dura). Anchor screws and acrylic cement was applied for fixation of the guide cannula. The body temperature of the animals was maintained at 37° C. by means of a rectal probe and a heating plate. The rats were allowed to recover from surgery for 2 days, housed singly in cages.
Experimental procedure. On the day of the experiment, a microdialysis probe (CMA/12, 0.5 mm diameter, 2 mm length) was inserted through the guide cannula of the conscious animal.
The probes were connected to a microinjection pump via a dual channel swivel which allowed the animals unrestricted movements. Perfusion of the microdialysis probe with filtered Ringer solution (145 mM NaCl, 3 mM KCl, 1 mM MgCl2, 1.2 mM CaCl2) was maintained for the duration of the experiment at a constant flow rate of 1 μL/min. After 180 min of stabilisation, the experiments were initiated. Dialysates were collected every 20 min. After the experiments the rats were sacrificed by decapitation, their brains removed, frozen and sliced for probe placement verification.
Administration of compounds. N-(2,6-dimethyl-4-morpholin-4-yl-phenyl)-3,3-dimethyl-butyramide (5 mg/kg) or vehicle (10% 2-hydroxy-propyl-beta-cyclodextrin, isotonic, pH 5-7) was administered subcutaneously in a volume of 2.5 ml/kg. Thirty min after the first administration dex-amphetamine sulphate (0.5 mg/kg s.c.) was administered.
Analysis of dialvsate. The concentration of dopamine (DA) in the dialysates was assessed by means of HPLC with electrochemicl detection. The dialysate constitutents were separated by reverse phase liquid chromatography (ODS 150×3 mm, […]). Mobile phase consisted of 90 mM NaH2PO4, 50 mM sodium citrate, 367 mg/l sodium 1-octanesulfonic acid, 50 μM EDTA and 8% acetonitrile (pH 4.0) at a flow rate of 0.5 mL/min. Electrochemical detection of DA was accomplished using a coulometric detector; potential set at E1=−75 mV and E2=300 mV (guard cell at 350 mV) (Coulochem II, ESA). The dialysate levels of DA in the three dialyse samples preceding the administration of compound were averaged and used as baseline level of DA (100%).
Statistical analysis. The dialysate levels of DA in the three dialyse samples preceding the administration of compound were averaged and used as baseline level of DA (100%). Data were analysed using repeated measure analyses of variance followed by post hoc tests (Tukey test), when appropriate. *p<0.05 were considered significant.

With `Cc1cc(N2CCOCC2)cc(C)c1NC(=O)CC(C)(C)C` [N-(2,6-dimethyl-4-morpholin-4-yl-phenyl)-3,3-dimethyl-butyramide] the ED50 [1] was 2.1 mg/kg, the “Effect on basal extracellular DA level in the nucleus accumbens” value ([2]; freely moving rats, data not shown) was “did not significantly affected” and the “DA level in the nucleus accumbens, % of baseline” value (“DA level … % of baseline” for short) ([2]; time 0 min (baseline sample)) was 91 ± 4 % of baseline. The “DA level … % of baseline” value ([2]; time 20 min) was 112 ± 12 % of baseline, the “DA level … % of baseline” value ([2]; time 40 min) was 227 ± 46 % of baseline and the “DA level … % of baseline” value ([2]; time 60 min) was 262 ± 53* % of baseline. The “DA level … % of baseline” value ([2]; time 80 min) was 195 ± 38* % of baseline, the “DA level … % of baseline” value ([2]; time 100 min) was 172 ± 24 % of baseline and the “DA level … % of baseline” value ([2]; time 120 min) was 166 ± 32 % of baseline. The “DA level … % of baseline” value ([2]; time 140 min) was 129 ± 35 % of baseline, the “DA level … % of baseline” value ([2]; time −20 min (baseline sample)) was 100 ± 3 % of baseline and the “DA level … % of baseline” value ([2]; time −40 min (baseline sample)) was 108 ± 5 % of baseline.
